# Measured values taken from patent US20260049084A1, “ENPP1 MODULATORS AND PRODUCTS AND USES THEREOF” (Gossamer Bio Services, Inc., priority 2022, published 2026).
# Tests used:
# [1] = biological target: Recombinant human ENPP3 protein (Homo sapiens (Human), UniProt O14638); assay: ENPP3 cGAMP Biochemical Assay; conditions: 70.5 nM ENPP3, 120 μM 2′3′-cGAMP substrate, TR-FRET
# Experimental: ENPP3 cGAMP Biochemical Assay
# Compounds were added to 384 well Proxiplate (PerkinElmer, Waltham MA) at 100 nl/well from DMSO stocks using Echo (Labcyte, San Jose CA). Recombinant human ENPP3 protein (Acro Biosystems, Newwark DE) was prepared in assay buffer (50 mM Tris pH7.5, 1 mM TCEP pH7.0, 2 mM MgCl2, 2 mM CaCl2), 2 mM ZnCl2 and 0.005% Tween20) and added at 2 μl/well. The plate was sealed, centrifuged at 1000 rpm for 1 minute and incubated at room temperature for 30 minutes before 2 μl substrate 2′3′-cGAMP (R&D Systems, Minneapolis MN) in assay buffer was added to each well to a final concentration of 70.5 nM ENPP3 and 120 μM 2′3′-cGAMP. The plate was sealed and centrifuged at 1000 rpm for 1 minute again. After incubation at 25° C. for 60 minutes, Terbium labelled AMP/GMP antibody and AMP/GMP HiLyte647 Tracer (BellBrook Labs, Fitchburg WI) in detection buffer (50 mM Tris pH7.5, 20 mM EDTA and 0.1% Prionex) were added to the reaction mixture to a final concentration of 475 nM and 3 nM respectively. The assay plate was incubated at room temperature for 120 minutes. TR-FRET signal was detected using Envision (PerkinElmer, Waltham MA).
# [2] = biological target: Recombinant human ENPP1 protein (Homo sapiens (Human), UniProt P22413); assay: ENPP1 cGAMP Biochemical Assay; conditions: 0.5 nM ENPP1, 1000 nM 2′3′-cGAMP substrate, TR-FRET
# Recombinant human ENPP1 protein, sequence (P22413 whole entry): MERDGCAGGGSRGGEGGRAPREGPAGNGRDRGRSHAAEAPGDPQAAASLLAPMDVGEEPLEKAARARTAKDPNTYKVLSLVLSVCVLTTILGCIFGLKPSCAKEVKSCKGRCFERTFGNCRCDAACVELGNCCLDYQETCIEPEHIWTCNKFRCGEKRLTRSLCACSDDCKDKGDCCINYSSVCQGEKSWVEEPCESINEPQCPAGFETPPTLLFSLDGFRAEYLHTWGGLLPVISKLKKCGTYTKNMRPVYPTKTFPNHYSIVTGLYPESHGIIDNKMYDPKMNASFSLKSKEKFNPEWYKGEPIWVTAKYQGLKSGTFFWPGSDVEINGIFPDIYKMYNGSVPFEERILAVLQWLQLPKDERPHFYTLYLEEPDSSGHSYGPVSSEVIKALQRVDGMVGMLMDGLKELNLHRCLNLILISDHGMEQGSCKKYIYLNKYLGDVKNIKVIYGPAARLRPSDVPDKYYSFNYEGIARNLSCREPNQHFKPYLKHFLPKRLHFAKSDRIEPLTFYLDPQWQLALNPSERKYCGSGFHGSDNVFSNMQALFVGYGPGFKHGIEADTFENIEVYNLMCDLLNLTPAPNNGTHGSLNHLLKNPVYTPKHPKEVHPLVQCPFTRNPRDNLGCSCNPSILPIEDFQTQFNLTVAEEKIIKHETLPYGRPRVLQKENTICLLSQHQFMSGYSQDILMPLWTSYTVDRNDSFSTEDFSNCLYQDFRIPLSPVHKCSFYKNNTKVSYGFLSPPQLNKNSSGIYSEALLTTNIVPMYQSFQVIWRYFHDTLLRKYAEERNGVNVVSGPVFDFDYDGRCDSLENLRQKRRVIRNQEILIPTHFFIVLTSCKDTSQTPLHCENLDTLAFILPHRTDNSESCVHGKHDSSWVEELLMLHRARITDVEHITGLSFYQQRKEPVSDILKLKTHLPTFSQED
# Experimental: ENPP1 cGAMP Biochemical Assay
# Compounds were added to 384 well Proxiplate (PerkinElmer, Waltham MA) at 100 nl/well from DMSO stocks using Echo (Labcyte, San Jose CA). Recombinant human ENPP1 protein (R&D Systems, Minneapolis MN) was prepared in assay buffer (50 mM Tris pH7.5, 1 mM TCEP pH7.0, 2 mM MgCl2 and 0.005% Tween20) and added at 10 μl/well. The plate was sealed, centrifuged at 1000 rpm for 1 minute and incubated at room temperature for 30 minutes before 5 μl substrate 2′3′-cGAMP (R&D Systems, Minneapolis MN) in assay buffer was added to each well to a final concentration of 0.5 nM ENPP1 and 1000 nM 2′3′-cGAMP. The plate was sealed and centrifuged at 1000 rpm for 1 minute again. After incubation at 25° C. for 60 minutes, Terbium labelled AMP/GMP antibody and AMP/GMP HiLyte647 Tracer (BellBrook Labs, Fitchburg WI) in detection buffer (50 mM Tris pH7.5, 20 mM EDTA and 0.1% Prionex) were added to the reaction mixture to a final concentration of 2 nM (5 μl/well). The assay plate was incubated at room temperature for 120 minutes. TR-FRET signal was detected using Envision (PerkinElmer, Waltham MA).
# Recombinant human ENPP3 protein, sequence (O14638 whole entry): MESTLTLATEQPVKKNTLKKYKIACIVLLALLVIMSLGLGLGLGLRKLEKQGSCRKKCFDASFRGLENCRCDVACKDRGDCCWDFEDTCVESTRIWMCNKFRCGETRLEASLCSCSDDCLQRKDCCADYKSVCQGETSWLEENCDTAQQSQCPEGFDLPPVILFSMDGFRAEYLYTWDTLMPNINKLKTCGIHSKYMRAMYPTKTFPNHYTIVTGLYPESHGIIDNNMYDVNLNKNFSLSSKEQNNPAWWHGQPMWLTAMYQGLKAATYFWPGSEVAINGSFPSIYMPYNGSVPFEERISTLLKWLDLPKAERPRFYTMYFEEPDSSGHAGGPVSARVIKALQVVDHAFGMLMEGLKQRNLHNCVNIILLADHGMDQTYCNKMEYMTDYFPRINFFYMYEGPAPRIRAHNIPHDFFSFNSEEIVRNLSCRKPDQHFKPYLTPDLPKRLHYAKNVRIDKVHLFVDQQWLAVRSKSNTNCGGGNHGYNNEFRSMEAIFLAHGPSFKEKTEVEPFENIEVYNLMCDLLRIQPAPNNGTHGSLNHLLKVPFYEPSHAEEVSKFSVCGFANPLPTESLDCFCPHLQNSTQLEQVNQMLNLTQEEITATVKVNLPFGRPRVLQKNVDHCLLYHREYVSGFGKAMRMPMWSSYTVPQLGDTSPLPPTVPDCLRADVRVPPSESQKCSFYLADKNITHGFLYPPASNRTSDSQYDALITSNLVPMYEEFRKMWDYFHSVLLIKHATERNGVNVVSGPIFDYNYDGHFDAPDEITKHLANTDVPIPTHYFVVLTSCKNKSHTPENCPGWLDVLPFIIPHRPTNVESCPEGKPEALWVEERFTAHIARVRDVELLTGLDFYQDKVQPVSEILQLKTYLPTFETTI
IC50 [1],IC50 [2],Structure (SMILES)
≥ 1000 nM,< 10 nM,"C#CCn1nc(Cl)c2c(NCc3ccc(S(=N)(=O)NC)cc3)ccnc21 (stereo in doubt) [Compound 10B, (R)-4-(((3-chloro-1-(prop-2-yn-1-yl)-1H-pyrazolo[3,4-b]pyridin-4-yl)amino)methyl)-N-methylbenzenesulfonimidamide]"
10 to 100 nM,< 10 nM,"C#CCn1nc(Cl)c2c(NCc3ccc(S(=N)(=O)NC)cc3)ccnc21 (stereo in doubt) [Compound 10C, (S)-4-(((3-chloro-1-(prop-2-yn-1-yl)-1H-pyrazolo[3,4-b]pyridin-4-yl)amino)methyl)-N-methylbenzenesulfonimidamide]"
≥ 1000 nM,,"CCn1ncc2c(NCC3CCN([S@@](C)(=N)=O)CC3)ccnc21 [Compound 14G, (R)-1-ethyl-N-((1-(S-methylsulfonimidoyl)piperidin-4-yl)methyl)-1H-pyrazolo[3,4-b]pyridine-4-amine]"
≥ 1000 nM,,"CCn1ncc2c(NCC3CCN([S@](C)(=N)=O)CC3)ccnc21 [Compound 14H, (S)-1-ethyl-N-((1-(S-methylsulfonimidoyl)piperidin-4-yl)methyl)-1H-pyrazolo[3,4-b]pyridin-4-amine]"
100 to 1000 nM,,"CN=[S@](N)(=O)N1CCC(CNc2ccnc3c2c(Cl)nn3CC#N)CC1 [Compound 15G, (S)-4-(((3-chloro-1-(cyanomethyl)-1H-pyrazolo[3,4-b]pyridin-4-yl)amino)methyl)-N′-methylpiperidine-1-sulfonimidamide]"

# Second part, the compound before the results:
Structure (SMILES),IC50 [1],IC50 [2]
"CCn1nc(Cl)c2c(NCC3CCN(S(=N)(N)=O)CC3)ccnc21 (stereo not shown) [Compound 1C, 4-(((3-chloro-1-ethyl-1H-pyrazolo[3,4-b]pyridin-4-yl)amino)methyl)piperidine-1-sulfonimidamide]",≥ 1000 nM,10 to 100 nM
"CCn1ncc2c(NCc3ccc(S(=N)(N)=O)cc3)cc(-c3ncc[nH]3)nc21 (stereo not shown) [Compound 2C, 4-(((1-ethyl-6-(1H-imidazol-2-yl)-1H-pyrazolo [3,4-b]pyridin-4-yl)amino)methyl)benzene sulfonimidamide]",100 to 1000 nM,100 to 1000 nM
"CCn1ncc2c(NCc3ccc(S(=N)(N)=O)cc3)ncnc21 (stereo not shown) [Compound 2D, 4-(((1-ethyl-1H-pyrazolo[3,4-d]pyrimidin-4-yl)amino)methyl)benzenesulfonimidamide]",≥ 1000 nM,10 to 100 nM
"C#CCn1nc(Cl)c2c(NCc3c(F)cc(S(N)(=O)=NC)cc3F)ccnc21 (stereo not shown) [Compound 3B, 4-(((3-chloro-1-(prop-2-yn-1-yl)-1H-pyrazolo[3,4-b]pyridin-4-yl)amino)methyl)-3,5-difluoro-N-methylbenzenesulfonimidamide]",100 to 1000 nM,< 10 nM
"C#CCn1nc(Cl)c2c(N(C)Cc3ccc(S(N)(=O)=NC)cc3)ccnc21 (stereo not shown) [Compound 3C, 4-(((3-chloro-1-(prop-2-yn-1-yl)-1H-pyrazolo[3,4-b]pyridin-4-yl)(methyl)amino)methyl)-N′-methylbenzenesulfonimidamide]",100 to 1000 nM,< 10 nM
"CCn1ncc2c(NCc3ccc(S(N)(=O)=NC#N)cc3)ccnc21 (stereo not shown) [Compound 3D, N′-cyano-4-(((1-ethyl-1H-pyrazolo[3,4-b]pyridin-4-yl)amino)methyl)benzenesulfonimidamide]",100 to 1000 nM,< 10 nM
"CCn1ncc2c(NCc3ccc([S@@](N)(=O)=NC)cc3)ccnc21 [Compound 3E, (S)-4-(((1-ethyl-1H-pyrazolo[3,4-b]pyridin-4-yl)amino)methyl)-N′-methylbenzenesulfonimidamide]",≥ 1000 nM,< 10 nM
"CCn1ncc2c(NCc3ccc([S@](N)(=O)=NC)cc3)ccnc21 [Compound 3F, (R)-4-(((1-ethyl-1H-pyrazolo[3,4-b]pyridin-4-yl)amino)methyl)-N′-methylbenzenesulfonimidamide]",≥ 1000 nM,100 to 1000 nM
"CCn1ncc2c(Nc3ccc(S(N)(=O)=NCC4CC4)cc3)ccnc21 (stereo not shown) [Compound 5A, N′-(cyclopropylmethyl)-4-((1-ethyl-1H-pyrazolo [3,4-b]pyridin-4-yl)amino) benzenesulfonimidamide]",100 to 1000 nM,10 to 100 nM
